Usually IC50 stands for the midpoint of a concentration-inhibition curve.

Where two headings read alike, the source gives them in different places.

Seven molecules from article PMC4317581, “Virtual Screening of Acetylcholinesterase Inhibitors Using the Lipinski's Rule of Five and ZINC Databank” (BioMed Research International, 2015) can be followed below.

Holding throughout (format): biochemical
The target of assay [1] is AChE from Electrophorus electricus (EeAChE) (Electrophorus electricus, UniProt O42275). Nature of the assay: Ellman cholinesterase assay, purified AChE from Electrophorus electricus. As to the method: (§1) The compounds selected as inhibitors of AChE activity were obtained commercially from MolPort (http://www.molport.com/buy-chemicals/index). They were dissolved in dimethyl sulfoxide (DMSO), at a final concentration of 0.1%.
Sequence of AChE from Electrophorus electricus (EeAChE) (O42275 24-633): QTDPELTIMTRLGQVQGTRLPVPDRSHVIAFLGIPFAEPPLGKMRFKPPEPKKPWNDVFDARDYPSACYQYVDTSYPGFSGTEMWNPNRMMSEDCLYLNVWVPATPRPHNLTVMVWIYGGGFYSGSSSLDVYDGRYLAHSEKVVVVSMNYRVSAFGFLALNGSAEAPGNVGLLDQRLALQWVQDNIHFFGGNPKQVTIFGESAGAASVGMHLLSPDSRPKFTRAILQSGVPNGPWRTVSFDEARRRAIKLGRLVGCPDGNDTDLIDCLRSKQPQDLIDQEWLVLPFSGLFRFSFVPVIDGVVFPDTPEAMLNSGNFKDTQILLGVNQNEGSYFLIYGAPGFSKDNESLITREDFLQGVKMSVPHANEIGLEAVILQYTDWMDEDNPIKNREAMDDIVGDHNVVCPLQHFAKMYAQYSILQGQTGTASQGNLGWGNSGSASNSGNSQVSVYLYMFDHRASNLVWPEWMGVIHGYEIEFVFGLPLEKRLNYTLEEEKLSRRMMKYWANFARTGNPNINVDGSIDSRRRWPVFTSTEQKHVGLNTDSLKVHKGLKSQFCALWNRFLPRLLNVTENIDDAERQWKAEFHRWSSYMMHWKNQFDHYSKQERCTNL
(§2) The cholinesterase activities were measured based on Ellman et al.'s method. The increase of absorbance was monitored at 412 nm in a reaction mixture containing 10 mM potassium phosphate buffer, pH 7.4, and 1 mM DTNB [5,5′-dithiobis-(2-nitrobenzoic) acid] (from Sigma) in the presence of one of the following enzymes: purified AChE from Electrophorus electricus (EeAChE)—0.05 U/ml, AChE from human erythrocytes (HsAChE), AChE from Danio rerio (DrAChE)—0.5 μg, and purified BChE from Equus ferus (EfBChE)—0.05 U/mL. The compounds (or only 0.1% DMSO for the control group) were preincubated with the enzyme during 10 minutes at room temperature, and the reaction was started with the addition of acetylthiocholine or butyrylthiocholine (0.8 mM).
(§3) The IC50 values were determined by nonlinear regression (log concentration-inhibition curves). Data were analyzed by one-way analysis of variance (ANOVA) followed by Student-Newman-Keuls test. Statistical significance was set at P < 0.05. The statistics have been performed using GraphPad Prism 5 (version 5.01, GraphPad Software, Inc., USA).
A general note: DTNB colorimetry detects thiols as they appear.

In assay [2] the target is T1, AChE from Danio rerio (DrAChE) (Danio rerio, UniProt Q9DDE3).
T1 construct: zebrafish brains were homogenized on ice in 60 volumes (v/w) of Tris-citrate buffer; from tissue; host or cells: zebrafish brain homogenate
T1 sequence (Q9DDE3 24-634): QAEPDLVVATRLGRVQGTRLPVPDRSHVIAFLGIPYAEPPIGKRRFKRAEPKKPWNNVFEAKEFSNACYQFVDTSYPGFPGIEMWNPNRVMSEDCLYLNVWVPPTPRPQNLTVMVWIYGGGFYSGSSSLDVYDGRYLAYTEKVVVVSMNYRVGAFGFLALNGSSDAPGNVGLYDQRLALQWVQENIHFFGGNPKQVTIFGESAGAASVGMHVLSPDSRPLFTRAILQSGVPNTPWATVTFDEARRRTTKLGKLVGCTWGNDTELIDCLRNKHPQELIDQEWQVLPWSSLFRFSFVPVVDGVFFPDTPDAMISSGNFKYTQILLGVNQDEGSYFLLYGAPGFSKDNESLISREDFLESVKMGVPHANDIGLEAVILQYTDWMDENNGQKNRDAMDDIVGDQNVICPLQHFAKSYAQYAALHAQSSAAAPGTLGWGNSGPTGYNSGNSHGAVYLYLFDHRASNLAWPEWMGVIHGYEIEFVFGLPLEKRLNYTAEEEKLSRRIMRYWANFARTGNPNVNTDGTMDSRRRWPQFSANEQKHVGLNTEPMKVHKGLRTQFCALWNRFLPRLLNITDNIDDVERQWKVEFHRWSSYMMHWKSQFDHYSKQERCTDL
Briefly: Ellman cholinesterase assay, zebrafish brain homogenate AChE. On the procedure: as §1, §2
The DrAChE assay was performed as previously described by Rosemberg et al. (2010). Briefly, zebrafish brains were homogenized on ice in 60 volumes (v/w) of Tris-citrate buffer (50 mM Tris, 2 mM EDTA, 2 mM EGTA, and pH 7.4, with citric acid) using a Potter-Elvehjem-type glass homogenizer. Samples (0.5 μg protein) were preincubated for 10 min at 25°C and the enzyme activity was further assessed in the absence and the presence of the selected compounds.
as §3

The target in assay [3] is T2, AChE from human erythrocytes (HsAChE) (Homo sapiens, UniProt P22303).
T2 construct: from tissue; host or cells: human erythrocyte ghosts from blood of healthy donors
T2 sequence (P22303 other isoform, or with tags, fused parts or gaps): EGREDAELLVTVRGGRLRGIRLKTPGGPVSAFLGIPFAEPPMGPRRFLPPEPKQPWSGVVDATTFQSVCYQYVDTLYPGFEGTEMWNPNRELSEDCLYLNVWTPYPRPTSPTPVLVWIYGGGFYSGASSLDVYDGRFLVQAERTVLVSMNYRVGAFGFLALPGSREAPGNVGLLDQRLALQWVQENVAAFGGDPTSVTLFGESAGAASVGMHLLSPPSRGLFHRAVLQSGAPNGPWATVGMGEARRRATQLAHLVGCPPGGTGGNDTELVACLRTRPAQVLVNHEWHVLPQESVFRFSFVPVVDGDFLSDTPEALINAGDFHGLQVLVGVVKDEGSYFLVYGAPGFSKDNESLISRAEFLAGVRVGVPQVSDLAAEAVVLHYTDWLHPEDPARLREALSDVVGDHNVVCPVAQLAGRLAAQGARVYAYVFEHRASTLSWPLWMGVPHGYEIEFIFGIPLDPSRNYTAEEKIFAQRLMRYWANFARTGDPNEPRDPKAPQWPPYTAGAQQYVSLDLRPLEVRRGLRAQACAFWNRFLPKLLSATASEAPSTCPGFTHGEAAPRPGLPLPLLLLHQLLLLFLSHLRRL
Nature of the assay: Ellman cholinesterase assay, human erythrocyte ghost AChE. As to the method:
as §1, §2
Haemoglobin-free erythrocyte ghosts were prepared according to the method previously described. Blood of nonfasted healthy voluntary donors was collected. Heparinized human blood was centrifuged at 3000 g for 10 min. The packed erythrocytes were diluted in 20 volumes (w/v) of hypotonic sodium/potassium phosphate buffer (6.7 mM, pH 7.4) to facilitate the hemolysis, followed by centrifugation at 30.000 g for 30 min at 4°C. The supernatant was removed and the pellet resuspended in hypotonic phosphate buffer. After two additional washing cycles, the pellet was resuspended in sodium/potassium phosphate buffer (0.1 M, pH 7.4) and then centrifuged again at 30.000 g for 30 min at 4°C. The supernatant was gently removed and the pellet was stored. Aliquots of the erythrocyte ghosts were stored at −20°C until usage within one week. The sample was diluted 10 times for AChE activity measurement. Fifty μL of the stored ghost preparation, in a final volume of 200 μL, was used for the assay. Hemoglobin content from ghost membranes was measured at 540 nm as the cyano-met-Hb form, but no hemoglobin was detected.
as §3

Assay [4] has as its target BChE from Equus ferus (EfBChE) (Equus caballus, UniProt P81908). Briefly: Ellman cholinesterase assay, purified BChE from Equus ferus. On the procedure:
as §1, §2, §3

Setting [5] is: purified EeAChE 0.05 U/ml, 10 min preincubation, acetylthiocholine 0.8 mM, read-out: IC50 EeAChE.
Where [6] appears, read: zebrafish brain homogenate 0.5 μg protein, 10 min preincubation, read-out: IC50 DrAChE.
The mark [7] stands for this setting: human erythrocyte ghosts, 10 min preincubation, read-out: IC50 HsAChE.
The mark [8] stands for this setting: purified BChE 0.05 U/mL, 10 min preincubation, butyrylthiocholine 0.8 mM, read-out: IC50 EcBChE.

Sequence of BChE from Equus ferus (EfBChE) (P81908 whole entry): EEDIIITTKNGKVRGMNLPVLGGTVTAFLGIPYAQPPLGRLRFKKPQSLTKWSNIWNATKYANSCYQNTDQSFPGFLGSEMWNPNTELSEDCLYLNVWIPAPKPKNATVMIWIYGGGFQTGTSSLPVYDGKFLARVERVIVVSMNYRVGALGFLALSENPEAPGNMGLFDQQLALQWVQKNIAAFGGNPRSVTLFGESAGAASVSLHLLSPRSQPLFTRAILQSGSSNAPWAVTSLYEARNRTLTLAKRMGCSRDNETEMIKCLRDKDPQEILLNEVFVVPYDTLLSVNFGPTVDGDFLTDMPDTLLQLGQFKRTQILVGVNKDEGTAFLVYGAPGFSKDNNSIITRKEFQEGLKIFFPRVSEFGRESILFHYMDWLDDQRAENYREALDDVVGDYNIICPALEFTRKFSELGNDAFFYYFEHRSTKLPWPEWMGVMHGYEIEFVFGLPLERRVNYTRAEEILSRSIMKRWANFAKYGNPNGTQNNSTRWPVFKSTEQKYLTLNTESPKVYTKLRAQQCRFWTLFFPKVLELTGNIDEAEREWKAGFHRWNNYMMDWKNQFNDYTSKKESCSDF

For `O=c1ccc2ccc(OCC[N+]34CCC(CC3)C(C(O)(c3ccccc3)c3ccccc3)C4)cc2o1` (stereo not shown) [A], the IC50 stood at 36.3 ± 3.14 µM in assay [1], 26.2 ± 3.98 µM in assay [2], 13.2 ± 1.38 µM in assay [3] and 22.2 ± 1.06 µM in assay [4].
`COc1c2c(cc3c1[C@H](CC(=O)c1cc4c(cc1C)C(C)(C)[C@@H](C)C4(C)C)[N+](C)(C)CC3)OCO2` [B]: the 50% inhibitory concentration (IC50) was determined as 578 ± 84.3 µM in assay [1] (setting [5]), 21.2 ± 1.44 µM in assay [2] (setting [6]), 37.5 ± 1.97 µM in assay [3] (setting [7]) and 4.02 ± 0.78 µM in assay [4] (setting [8]).
Regarding `CCCC[N+]1(CC#CC2(O)c3ccccc3-c3ccccc32)CCC(c2ccccc2)C1` (stereo not shown) [C], the IC50 in assay [1] (setting [5]) was 761 ± 128 µM; in assay [2] (setting [6]), 239 ± 2.95 µM; in assay [3] (setting [7]) it was 92.1 ± 39.7 µM; in assay [4] (setting [8]), 0.75 ± 0.18 µM.
The corresponding values for `C[N+]1(Cc2ccc(-c3nnc(-c4ccc([N+](=O)[O-])cc4)o3)cc2)CCc2[nH]c3ccccc3c2C1` (stereo not shown) [Compound D] are 5.39 ± 0.55 µM, 2.31 ± 0.29 µM, 1.69 ± 0.46 µM and 5.64 ± 2.47 µM.
For `c1ccc(-c2c3c(cc4ccccc24)C[N+]2(CCCC2)C3)cc1` [Compound E], the IC50 in assay [1] (setting [5]) turned out to be 342 ± 54.6 µM; in assay [2] (setting [6]) it was 26.4 ± 5.3 µM; in assay [3] (setting [7]), 512 ± 301 µM; in assay [4] (setting [8]), 12.7 ± 7.66 µM.
With `C[N+]1(C)CCC2(CC1)Oc1ccccc1C1CC(c3ccc(-c4ccccc4)cc3)=NN12` (stereo not shown) [F], the IC50 in assay [1] was 84.2 ± 6 µM; in assay [2] it was 192 ± 29.8 µM; in assay [3] it was 151 ± 61.7 µM; in assay [4], 32.9 ± 3.88 µM.
Turning to `C[N+]1(C)CCC2(CC1)Oc1ccccc1C1CC(c3ccc4ccccc4c3)=NN12` (stereo not shown) [G], the IC50 came out at 344 ± 50.7 µM in assay [1], 49.8 ± 15.3 µM in assay [2], 70 ± 7.96 µM in assay [3] and 9.51 ± 6.94 µM in assay [4].
